Reference: article PMC4406241 (Current eye research, 2009)

Biological target: T1, Breast Cancer Resistance Protein (BCRP) (Homo sapiens, UniProt Q9UNQ0)
T1 sequence (Q9UNQ0 1-655): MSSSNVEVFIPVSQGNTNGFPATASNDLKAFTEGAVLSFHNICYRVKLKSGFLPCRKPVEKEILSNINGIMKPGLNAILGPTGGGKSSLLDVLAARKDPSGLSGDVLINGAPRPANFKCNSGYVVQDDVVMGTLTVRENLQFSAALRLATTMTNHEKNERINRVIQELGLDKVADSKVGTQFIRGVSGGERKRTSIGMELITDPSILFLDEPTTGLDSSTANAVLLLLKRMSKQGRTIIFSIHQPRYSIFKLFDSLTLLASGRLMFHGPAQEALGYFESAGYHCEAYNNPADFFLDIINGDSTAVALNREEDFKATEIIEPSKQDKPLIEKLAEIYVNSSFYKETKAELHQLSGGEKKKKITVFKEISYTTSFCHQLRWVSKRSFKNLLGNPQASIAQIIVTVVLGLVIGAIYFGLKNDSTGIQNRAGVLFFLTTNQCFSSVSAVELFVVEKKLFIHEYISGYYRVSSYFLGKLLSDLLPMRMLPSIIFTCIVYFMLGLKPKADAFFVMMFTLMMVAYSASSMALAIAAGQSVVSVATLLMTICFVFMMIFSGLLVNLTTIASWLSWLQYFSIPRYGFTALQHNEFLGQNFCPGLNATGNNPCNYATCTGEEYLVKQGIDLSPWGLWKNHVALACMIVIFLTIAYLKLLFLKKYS
Experiment: inhibition of [3H]-MTX efflux from MDCKII-BCRP transfected cells and SV40-HCEC
Assay type: cell-based

## COc1ccc2c3c([nH]c2c1)[C@H](C=C(C)C)N1C(=O)[C@@H]2CCCN2C(=O)[C@@H]1C3 [FTC, Fumetremorgin C]
  IC50: ~10 µM
